The test system of assay [1] is second-stage juveniles (J2) of M. incognita. Briefly: Bioassay against second-stage juveniles (J2) of M. incognita, 48 hours' exposure (paralysis). The format is in vivo. Particulars: for J2 paralyzed / nematotoxic effect on J2 / % paralyzed nematodes / % of paralyzed nematodes: 48 hours' exposure; for % of paralyzed nematodes: 0.25 g/L (of each compound). Here is the method:
(§1) FIG. 9—(A) Bioassay showing the effect of the commercial compounds on second-stage juveniles of M. incognita after 48 hours' exposure. 1—Control dH20, 2—DECE, 3—Glycose 10%, 4—Glycose 20%, 5—D-Pinitol (80 ug), 6—D-Pinitol (150 ug), 7—L-canavanina (80 ug), 8—L-canavanina (150 ug), 9—palmitic acid (80 ug), 10—palmitic acid (150 ug), 11—citric acid (80 ug), 12—citric acid (150 ug), 13—malic acid (80 ug), 14—malic acid (150 ug), 15—cis-aconitic acid (80 ug), 16—cis-anonitic acid (150 ug), 17—trans-anonitic acid (80 ug), 18—trans-aconitic acid (150 ug), 19—50 mM Tris/HCl pH 8, 20—50 mM acetic acid pH 5, 21—L-phenylamine (80 ug), 22—L-phenylamine (150 ug), 23—L-methionine (80 ug), 24—L-methionine (150 ug), 25—L-tryptophan (80 ug), 26—L-tryptophan (150 ug), 27—S-carboxymethylcistein (80 ug), 28—S-carboxymethylcisteine (150 ug), 29—Zantotoxine (80 ug), 30—Zantotoxine (150 ug), and 31—Glucose 20%+L-canavanine (15) ug). B—Evaluation of the effect of the different commercial compounds after the recovery assay using distilled water.
(§2) FIG. 10—(A) Bioassay showing the effect of the commercial compounds and their compositions on second-stage juveniles of M. incognita (J1) after 48 hours' exposure. C+ positive control (extract); C−: negative control (water); 2: palmitic acid; 3: S-carboxymethylcisteine; 4: trans-aconitic acid; 5: glucose. […] (B)—Evaluation of the effect of the different commercial compounds and their compositions after the recovery assay using distilled water. C+ positive control (extract); 2: palmitic acid; 3: S-carboxymethylcisteine; 4: trans-aconitic acid; 5: glucose.
(§3) In this context, compounds produced commercially with biological functions identified after research in the literature and present in the nematotoxic fractions of C. ensiformis were tested in bioassay against M. incognita juveniles (FIG. 9A).

Assay [2] has as its system J2 of M. incognita. Briefly: Recovery assay using distilled water (nematicidal vs nematostatic effect). The format is in vivo. How it is done: as §1, §2, §3

Some results are limits rather than exact numbers.

As for `COc1c2occc2cc2ccc(=O)oc12` [Xantotoxin], the J2 paralyzed in assay [1] (80 μg/300 μL) and in assay [1] (150 μg/300 μL) was 87% each time. The “kind of effect confirmed by recovery assay” value (“kind of effect confirmed” below) in assay [2] (80 μg/300 μL) and in assay [2] (150 μg/300 μL) was “nematicidal effect” each time.

As to `N[C@@H](Cc1c[nH]c2ccccc12)C(=O)O` [L-triptofane], the “nematotoxic effect on J2” value in assay [1] (80 μg/300 μL) and in assay [1] (150 μg/300 μL) was “not capable of affecting the J2” in each case.

Regarding `N=C(N)NOCC[C@H](N)C(=O)O` [L-canavanine], the “nematotoxic effect on J2” value in assay [1] (80 μg/300 μL) is “did not exhibit any nematotoxic activity”. In assay [2] (105 μg/300 μL), the “juveniles remained paralyzed after the recovery assay” value is given as 25%.

Take `CCCCCCCCCCCCCCCC(=O)O` [palmitic acid]: the “% paralyzed nematodes” value in assay [1] (0.125 g/L (of each compound)) is given as less than 7.66%; in assay [1] (0.17 g/L (of each compound)), 7.66%. Moreover, in assay [1], the “% of paralyzed nematodes” value is recorded as 33.86%. Further, the “kind of effect confirmed” value in assay [2] (80 μg/300 μL) and in assay [2] (150 μg/300 μL) was “nematostatic effect” each time.

As to `CO[C@H]1[C@H](O)[C@@H](O)[C@@H](O)[C@H](O)[C@@H]1O` [D-pinitol], the “nematotoxic effect on J2” value in assay [1] (80 μg/300 μL) and in assay [1] (150 μg/300 μL) was “did not exhibit any toxic effect” throughout.

In the case of `O=C(O)/C=C(/CC(=O)O)C(=O)O` [cis-aconitic, cis-aconitic acid], the “nematicidal activity after the recovery assay” value in assay [2] (150 μg/300 μL) worked out at 40%.

As to `O=C[C@H](O)[C@@H](O)[C@H](O)[C@H](O)CO` [glucose], the “% paralyzed nematodes” value in assay [1] (0.125 g/L (of each compound)) is recorded as 0%. For the same molecule, the “paralyzing of nematodes” value in assay [1] (solution 10% (W/V), 48 hours) was “paralyzing most of the nematodes”. Besides, the “kind of activity confirmed by recovery assay” value in assay [2] (solution 10% (W/V)) is recorded as “nematostatic activity”.

As for `N[C@@H](Cc1ccccc1)C(=O)O` [L-phenylamnine], the “nematotoxic effect on J2” value in assay [1] (80 μg/300 μL) and in assay [1] (150 μg/300 μL) was “not capable of affecting the J2” each time.

For S-carboxymethylcisteine, the J2 paralyzed entry in assay [1] (80 μg/300 μL) and in assay [1] (150 μg/300 μL) was “about 90%” each time. The “% paralyzed nematodes” value in assay [1] (0.125 g/L (of each compound)) was less than 43.03%; in assay [1] (0.17 g/L (of each compound)), 43.03%. Besides, the “kind of effect confirmed” value in assay [2] (80 μg/300 μL) and in assay [2] (150 μg/300 μL) was “nematostatic effect” each time.

As for `O=C(O)/C=C(\CC(=O)O)C(=O)O` [trans-aconitic acid], the J2 paralyzed in assay [1] (80 μg/300 μL) was determined as 90%. Further, the results for the “% paralyzed nematodes” value in assay [1] (0.125 g/L (of each compound)) and in assay [1] (0.17 g/L (of each compound)) were less than 11.12% and 11.12%, respectively. Moreover, in assay [1], the “% of paralyzed nematodes” value came to 27.08%. For the same molecule, the “nematicidal activity after the recovery assay” value in assay [2] (150 μg/300 μL) is recorded as 98%.
